# Assay results published in patent US20240228504A1, “SUBSTITUTED TRICYCLIC AMIDES, ANALOGUES THEREOF, AND METHODS USING SAME” (Arbutus Biopharma Corporation, priority 2020, published 2024).
# Test system: HBV rcDNA in HepDE19 cells
# Test: HepDE19 assay with bDNA quantitation of HBV rcDNA
# Assay type: cell-based, hepatitis B virus
# Conditions: HepDE19 assay, inhibition of rcDNA formation, bDNA quantitation; read-out: DE-19bDNA EC50
row,SMILES,EC50
1,"CC(=O)N1Cc2[nH]c(=O)c3cc(F)c(F)cc3c2C(N(C)C(=O)c2cc3ccccc3[nH]2)C1 (single isomer, unassigned) [Compound 82, N-(3-Acetyl-8,9-difluoro-6-oxo-1,2,3,4,5,6-hexahydrobenzo[c][1,7]naphthyridin-1-yl)-N-methyl-1H-indole-2-carboxamide]",3500 nM
2,"CN(C(=O)c1cc2ccccc2[nH]1)C1CN(CCO)Cc2[nH]c(=O)c3cc(F)c(F)cc3c21 (single isomer, unassigned) [Compound 89, N-(8,9-Difluoro-3-(2-hydroxyethyl)-6-oxo-1,2,3,4,5,6-hexahydrobenzo[c][1,7]naphthyridin-1-yl)-N-methyl-1H-indole-2-carboxamide]",7900 nM
3,"CN(C(=O)c1cc2ccccc2[nH]1)C1CN(CCO)Cc2[nH]c(=O)c3cc(F)c(F)cc3c21 (single isomer, unassigned) [Compound 90, N-(8,9-Difluoro-3-(2-hydroxyethyl)-6-oxo-1,2,3,4,5,6-hexahydrobenzo[c][1,7]naphthyridin-1-yl)-N-methyl-1H-indole-2-carboxamide]",500 nM
4,"CN(C(=O)c1cc2cc(F)ccc2[nH]1)C1CNCc2[nH]c(=O)c3cc(F)c(F)cc3c21 (single isomer, unassigned) [Compound 101, N-(8,9-Difluoro-6-oxo-1,2,3,4,5,6-hexahydrobenzo[c][1,7]naphthyridin-1-yl)-5-fluoro-N-methyl-1H-indole-2-carboxamide]",10 nM
5,"CN(C(=O)c1cc2cc(F)ccc2[nH]1)C1CNCc2[nH]c(=O)c3cc(F)c(F)cc3c21 (single isomer, unassigned) [Compound 102, N-(8,9-Difluoro-6-oxo-1,2,3,4,5,6-hexahydrobenzo[c][1,7]naphthyridin-1-yl)-5-fluoro-N-methyl-1H-indole-2-carboxamide]",1800 nM
6,"CN(C(=O)c1cc2c(F)cccn2c1)C1CSCc2[nH]c(=O)c3cc(F)c(F)cc3c21 (single isomer, unassigned) [Compound 103, N-(8,9-Difluoro-6-oxo-1,4,5,6-tetrahydro-2H-thiopyrano[3,4-c]isoquinolin-1-yl)-8-fluoro-N-methylindolizine-2-carboxamide]",2500 nM
7,"CN(C(=O)c1cc2c(F)cccn2c1)C1CSCc2[nH]c(=O)c3cc(F)c(F)cc3c21 (single isomer, unassigned) [Compound 104, N-(8,9-Difluoro-6-oxo-1,4,5,6-tetrahydro-2H-thiopyrano[3,4-c]isoquinolin-1-yl)-8-fluoro-N-methylindolizine-2-carboxamide]",10 nM
8,"CN(C(=O)c1cc2c(F)cccc2[nH]1)C1CNCc2[nH]c(=O)c3cc(F)c(F)cc3c21 (single isomer, unassigned) [Compound 105, N-(8,9-Difluoro-6-oxo-1,2,3,4,5,6-hexahydrobenzo[c][1,7]naphthyridin-1-yl)-4-fluoro-N-methyl-1H-indole-2-carboxamide]",10 nM
9,"CN(C(=O)c1cc2c(F)cccc2[nH]1)C1CNCc2[nH]c(=O)c3cc(F)c(F)cc3c21 (single isomer, unassigned) [Compound 106, N-(8,9-Difluoro-6-oxo-1,2,3,4,5,6-hexahydrobenzo[c][1,7]naphthyridin-1-yl)-4-fluoro-N-methyl-1H-indole-2-carboxamide]",100 nM
10,"CN(C(=O)c1cc2ccc(F)cc2[nH]1)C1CNCc2[nH]c(=O)c3cc(F)c(F)cc3c21 (single isomer, unassigned) [Compound 107, N-(8,9-Difluoro-6-oxo-1,2,3,4,5,6-hexahydrobenzo[c][1,7]naphthyridin-1-yl)-6-fluoro-N-methyl-1H-indole-2-carboxamide]",20 nM
11,"CN(C(=O)c1cc2ccc(F)cc2[nH]1)C1CNCc2[nH]c(=O)c3cc(F)c(F)cc3c21 (single isomer, unassigned) [Compound 108, N-(8,9-Difluoro-6-oxo-1,2,3,4,5,6-hexahydrobenzo[c][1,7]naphthyridin-1-yl)-6-fluoro-N-methyl-1H-indole-2-carboxamide]",1600 nM
12,"CN(C(=O)c1cc2cccc(F)c2[nH]1)C1CNCc2[nH]c(=O)c3cc(F)c(F)cc3c21 (single isomer, unassigned) [Compound 113, N-(8,9-Difluoro-6-oxo-1,2,3,4,5,6-hexahydrobenzo[c][1,7]naphthyridin-1-yl)-7-fluoro-N-methyl-1H-indole-2-carboxamide]",430 nM
13,"CN(C(=O)c1cc2cccc(F)c2[nH]1)C1CNCc2[nH]c(=O)c3cc(F)c(F)cc3c21 (single isomer, unassigned) [Compound 114, N-(8,9-Difluoro-6-oxo-1,2,3,4,5,6-hexahydrobenzo[c][1,7]naphthyridin-1-yl)-7-fluoro-N-methyl-1H-indole-2-carboxamide]",20 nM
14,"CN(C(=O)c1cc2cc(F)c(F)cc2[nH]1)C1CNCc2[nH]c(=O)c3cc(F)c(F)cc3c21 (single isomer, unassigned) [Compound 115, N-(8,9-Difluoro-6-oxo-1,2,3,4,5,6-hexahydrobenzo[c][1,7]naphthyridin-1-yl)-5,6-difluoro-N-methyl-1H-indole-2-carboxamide]",20 nM
15,"CN(C(=O)c1cc2cc(F)c(F)cc2[nH]1)C1CNCc2[nH]c(=O)c3cc(F)c(F)cc3c21 (single isomer, unassigned) [Compound 116, N-(8,9-Difluoro-6-oxo-1,2,3,4,5,6-hexahydrobenzo[c][1,7]naphthyridin-1-yl)-5,6-difluoro-N-methyl-1H-indole-2-carboxamide]",1300 nM
16,"CN(C(=O)c1cc2c(F)cc(F)cc2[nH]1)C1CNCc2[nH]c(=O)c3cc(F)c(F)cc3c21 (single isomer, unassigned) [Compound 117, N-(8,9-Difluoro-6-oxo-1,2,3,4,5,6-hexahydrobenzo[c][1,7]naphthyridin-1-yl)-4,6-difluoro-N-methyl-1H-indole-2-carboxamide]",20 nM
17,"CN(C(=O)c1cc2c(F)cc(F)cc2[nH]1)C1CNCc2[nH]c(=O)c3cc(F)c(F)cc3c21 (single isomer, unassigned) [Compound 118, N-(8,9-Difluoro-6-oxo-1,2,3,4,5,6-hexahydrobenzo[c][1,7]naphthyridin-1-yl)-4,6-difluoro-N-methyl-1H-indole-2-carboxamide]",1200 nM
18,"CN(C(=O)c1cc2c(F)c(F)ccc2[nH]1)C1CNCc2[nH]c(=O)c3cc(F)c(F)cc3c21 (single isomer, unassigned) [Compound 119, N-(8,9-Difluoro-6-oxo-1,2,3,4,5,6-hexahydrobenzo[c][1,7]naphthyridin-1-yl)-4,5-difluoro-N-methyl-1H-indole-2-carboxamide]",10 nM
19,"CN(C(=O)c1cc2c(F)c(F)ccc2[nH]1)C1CNCc2[nH]c(=O)c3cc(F)c(F)cc3c21 (single isomer, unassigned) [Compound 120, N-(8,9-Difluoro-6-oxo-1,2,3,4,5,6-hexahydrobenzo[c][1,7]naphthyridin-1-yl)-4,5-difluoro-N-methyl-1H-indole-2-carboxamide]",850 nM
20,"CN(C(=O)c1cc2ccc(Cl)cn2c1)C1CNCc2[nH]c(=O)c3cc(F)c(F)cc3c21 (single isomer, unassigned) [Compound 121, 6-Chloro-N-(8,9-difluoro-6-oxo-1,2,3,4,5,6-hexahydrobenzo[c][1,7]naphthyridin-1-yl)-N-methylindolizine-2-carboxamide]",30 nM
21,"CN(C(=O)c1cc2ccc(Cl)cn2c1)C1CNCc2[nH]c(=O)c3cc(F)c(F)cc3c21 (single isomer, unassigned) [Compound 122, 6-Chloro-N-(8,9-difluoro-6-oxo-1,2,3,4,5,6-hexahydrobenzo[c][1,7]naphthyridin-1-yl)-N-methylindolizine-2-carboxamide]",1200 nM
22,"CN(C(=O)c1cc2c(F)cccn2c1)C1C[S+]([O-])Cc2[nH]c(=O)c3cc(F)c(F)cc3c21 (single isomer, unassigned) [Compound 149, N-(8,9-Difluoro-3-oxido-6-oxo-1,4,5,6-tetrahydro-2H-thiopyrano[3,4-c]isoquinolin-1-yl)-8-fluoro-N-methylindolizine-2-carboxamide]",150 nM
23,"CN(C(=O)c1cc2c(F)cccn2c1)C1C[S+]([O-])Cc2[nH]c(=O)c3cc(F)c(F)cc3c21 (single isomer, unassigned) [Compound 150, N-(8,9-Difluoro-3-oxido-6-oxo-1,4,5,6-tetrahydro-2H-thiopyrano[3,4-c]isoquinolin-1-yl)-8-fluoro-N-methylindolizine-2-carboxamide]",1100 nM
24,"CN(C(=O)c1cc2c(F)cccn2c1)C1CS(=O)(=O)Cc2[nH]c(=O)c3cc(F)c(F)cc3c21 (single isomer, unassigned) [Compound 151, N-(8,9-Difluoro-3,3-dioxido-6-oxo-2,4,5,6-tetrahydro-1H-thiopyrano[3,4-c]isoquinolin-1-yl)-8-fluoro-N-methylindolizine-2-carboxamide]",3610 nM
25,"CN(C(=O)c1cc2c(F)cccn2c1)C1CS(=O)(=O)Cc2[nH]c(=O)c3cc(F)c(F)cc3c21 (single isomer, unassigned) [Compound 152, N-(8,9-Difluoro-3,3-dioxido-6-oxo-2,4,5,6-tetrahydro-1H-thiopyrano[3,4-c]isoquinolin-1-yl)-8-fluoro-N-methylindolizine-2-carboxamide]",730 nM
26,"CN(C(=O)c1cc2c(F)cccn2c1)C1CNCc2[nH]c(=O)c3cc(F)c(F)cc3c21 (single isomer, unassigned) [Compound 160, N-(8,9-Difluoro-6-oxo-1,2,3,4,5,6-hexahydrobenzo[c][1,7]naphthyridin-1-yl)-8-fluoro-N-methylindolizine-2-carboxamide]",16200 nM
27,"CN(C(=O)c1cc2c(F)cccn2c1)C1CNCc2[nH]c(=O)c3cc(F)c(F)cc3c21 (single isomer, unassigned) [Compound 161, N-(8,9-Difluoro-6-oxo-1,2,3,4,5,6-hexahydrobenzo[c][1,7]naphthyridin-1-yl)-8-fluoro-N-methylindolizine-2-carboxamide]",20 nM
